Molecular target: Acetylcholinesterase (Electrophorus electricus, UniProt O42275)
Assay: Inhibition of electric eel AChE after 30 mins by Ellman's method

Chain of Acetylcholinesterase (O42275 whole entry): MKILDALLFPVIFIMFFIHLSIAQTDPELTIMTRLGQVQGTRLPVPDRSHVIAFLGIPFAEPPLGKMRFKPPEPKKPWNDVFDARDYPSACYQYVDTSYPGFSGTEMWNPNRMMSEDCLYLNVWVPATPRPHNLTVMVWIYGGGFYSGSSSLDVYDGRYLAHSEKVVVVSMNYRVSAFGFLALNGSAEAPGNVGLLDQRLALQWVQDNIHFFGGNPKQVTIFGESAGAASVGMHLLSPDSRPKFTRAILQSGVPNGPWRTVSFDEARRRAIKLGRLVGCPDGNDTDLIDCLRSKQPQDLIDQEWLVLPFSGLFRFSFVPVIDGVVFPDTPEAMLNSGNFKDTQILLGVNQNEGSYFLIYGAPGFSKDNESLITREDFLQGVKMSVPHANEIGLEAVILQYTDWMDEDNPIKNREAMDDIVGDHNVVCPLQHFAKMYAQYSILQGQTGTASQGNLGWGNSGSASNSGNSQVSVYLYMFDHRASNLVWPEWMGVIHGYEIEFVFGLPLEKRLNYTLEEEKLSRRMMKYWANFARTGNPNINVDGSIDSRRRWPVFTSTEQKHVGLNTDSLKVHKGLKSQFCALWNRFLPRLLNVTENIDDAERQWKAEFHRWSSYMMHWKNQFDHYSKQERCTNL

SMILES	IC50
COc1ccc(-c2c(C#N)c(N)c(C#N)c3c2SC(c2ccccc2)C3)cc1 (racemic)	5.11 µM
N#Cc1c(N)c(C#N)c(-c2ccc(Cl)cc2)c2c1CC(c1ccccc1)S2 (racemic)	29.2 µM
N#Cc1c(N)c(C#N)c(-c2ccc(F)cc2)c2c1CC(c1ccccc1)S2 (racemic)	32.3 µM
N#Cc1c(N)c(C#N)c(-c2ccc(Br)cc2)c2c1CC(c1ccccc1)S2 (racemic)	37.9 µM
CC(C)c1ccc(-c2c(C#N)c(N)c(C#N)c3c2SC(c2ccccc2)C3)cc1 (racemic)	37.1 µM
Cc1ccc(-c2c(C#N)c(N)c(C#N)c3c2SC(c2ccc(C)cc2)C3)cc1 (racemic)	4.24 µM
COc1ccc(-c2c(C#N)c(N)c(C#N)c3c2SC(c2ccc(C)cc2)C3)cc1 (racemic)	11.3 µM
Cc1ccc(C2Cc3c(C#N)c(N)c(C#N)c(-c4ccc(Cl)cc4)c3S2)cc1 (racemic)	13.6 µM
Cc1ccc(C2Cc3c(C#N)c(N)c(C#N)c(-c4ccc(F)cc4)c3S2)cc1 (racemic)	18.1 µM
Cc1ccc(C2Cc3c(C#N)c(N)c(C#N)c(-c4ccc(Br)cc4)c3S2)cc1 (racemic)	24.2 µM
CC(C)c1ccc(C2Cc3c(C#N)c(N)c(C#N)c(-c4ccc(Cl)cc4)c3S2)cc1 (racemic)	48.3 µM
CC(C)c1ccc(C2Cc3c(C#N)c(N)c(C#N)c(-c4ccc(F)cc4)c3S2)cc1 (racemic)	44.2 µM
Cc1ccc(-c2c(C#N)c(N)c(C#N)c3c2SC(c2ccc(Cl)cc2)C3)cc1 (racemic)	17.3 µM
COc1ccc(-c2c(C#N)c(N)c(C#N)c3c2SC(c2ccc(Cl)cc2)C3)cc1 (racemic)	26.6 µM
N#Cc1c(N)c(C#N)c(-c2ccc(Cl)cc2)c2c1CC(c1ccc(Cl)cc1)S2 (racemic)	34.1 µM
N#Cc1c(N)c(C#N)c(-c2ccc(F)cc2)c2c1CC(c1ccc(Cl)cc1)S2 (racemic)	39.2 µM
N#Cc1c(N)c(C#N)c(-c2ccc(Br)cc2)c2c1CC(c1ccc(Cl)cc1)S2 (racemic)	41.3 µM
COc1ccc(C2Cc3c(C#N)c(N)c(C#N)c(-c4ccc(C)cc4)c3S2)cc1 (racemic)	11.6 µM
COc1ccc(-c2c(C#N)c(N)c(C#N)c3c2SC(c2ccc(OC)cc2)C3)cc1 (racemic)	4.16 µM
Cc1ccc(-c2c(C#N)c(N)c(C#N)c3c2SC(c2ccccc2)C3)cc1 (racemic)	9.62 µM
